# ChEMBL document CHEMBL5505987 (Eur J Med Chem, 2024)
# Key:
# Type in all cases: functional, cell-based
# [1] = test system: MDA-MB-231; assay: Cytotoxicity against human MDA-MB-231 cells assessed as cell viability by MTT assay
# [2] = test system: MCF7; assay: Cytotoxicity against human MCF7 cells assessed as cell viability by MTT assay
# [3] = test system: HeLa; assay: Cytotoxicity against human HeLa cells assessed as cell viability by MTT assay
# [4] = test system: A549; assay: Cytotoxicity against human A549 cells assessed as cell viability by MTT assay
structure (smiles),measurement,setting,value
O=C1C[C@H](c2ccccc2)Oc2cc(O)c([C@@H](/C=C/C[C@@H](O)CCc3ccccc3)c3ccccc3)c(O)c21,IC50,[1],4.05 µM
same,IC50,[2],8.5 µM
same,IC50,[3],2 µM
same,IC50,[4],5.27 µM
